Data as given in ChEMBL document CHEMBL1138961, “Highly selective and potent agonists of sphingosine-1-phosphate 1 (S1P1) receptor” (Bioorg Med Chem Lett, 2006).
Calls of active or inactive are those of the source. No cut-off for these calls is given here.

Tests used:
[1] = organism: Homo sapiens; experiment: Selectivity for S1P1 receptor over S1P2 receptor
[2] = molecular target: T1, Sphingosine 1-phosphate receptor 1 (Homo sapiens, UniProt P21453); experiment: Agonist activity at S1P1 receptor assessed as induction of [35S]GTP-gamma-S binding; format: functional
[3] = organism: Homo sapiens; experiment: Selectivity for S1P1 receptor over S1P4 receptor
[4] = organism: Homo sapiens; experiment: Selectivity for S1P1 receptor over S1P5 receptor
[5] = molecular target: T2, Sphingosine 1-phosphate receptor 5 (Homo sapiens, UniProt Q9H228); experiment: Agonist activity at S1P5 receptor assessed as induction of [35S]GTP-gamma-S binding; format: functional
[6] = molecular target: T3, Sphingosine 1-phosphate receptor 3 (Homo sapiens, UniProt Q99500); experiment: Agonist activity at S1P3 receptor assessed as induction of [35S]GTP-gamma-S binding; format: functional
[7] = molecular target: T3, Sphingosine 1-phosphate receptor 3; experiment: Inhibition of S1P3 receptor at 10 uM
[8] = molecular target: T2, Sphingosine 1-phosphate receptor 5; experiment: Inhibition of S1P5 receptor at 10 uM
[9] = molecular target: T1, Sphingosine 1-phosphate receptor 1; experiment: Inhibition of S1P1 receptor at 10 uM
[10] = Oral bioavailability in rat; format: ADME, organism-based; conditions: in vivo
[11] = organism: Homo sapiens; experiment: Selectivity for S1P1 receptor over S1P3 receptor
[12] = Half life in rat; format: ADME, organism-based; conditions: in vivo
[13] = system: Mus musculus; experiment: Lowering of lymphocytes in mouse at 0.3 mg/kg, po; format: functional, organism-based; set-up: dose 0.3 mg/kg

T2 sequence (Q9H228 whole entry): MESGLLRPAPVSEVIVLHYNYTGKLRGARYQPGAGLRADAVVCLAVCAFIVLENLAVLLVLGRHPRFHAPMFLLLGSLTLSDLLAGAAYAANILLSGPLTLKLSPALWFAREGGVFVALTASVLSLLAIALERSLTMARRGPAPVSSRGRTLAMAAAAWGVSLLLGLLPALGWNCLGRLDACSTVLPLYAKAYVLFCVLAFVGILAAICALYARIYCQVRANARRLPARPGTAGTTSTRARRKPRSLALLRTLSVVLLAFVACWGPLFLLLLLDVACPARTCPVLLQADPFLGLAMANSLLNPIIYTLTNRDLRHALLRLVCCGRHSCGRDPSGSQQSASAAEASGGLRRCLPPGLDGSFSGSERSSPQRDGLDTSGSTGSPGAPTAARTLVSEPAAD
T1 sequence (P21453 whole entry): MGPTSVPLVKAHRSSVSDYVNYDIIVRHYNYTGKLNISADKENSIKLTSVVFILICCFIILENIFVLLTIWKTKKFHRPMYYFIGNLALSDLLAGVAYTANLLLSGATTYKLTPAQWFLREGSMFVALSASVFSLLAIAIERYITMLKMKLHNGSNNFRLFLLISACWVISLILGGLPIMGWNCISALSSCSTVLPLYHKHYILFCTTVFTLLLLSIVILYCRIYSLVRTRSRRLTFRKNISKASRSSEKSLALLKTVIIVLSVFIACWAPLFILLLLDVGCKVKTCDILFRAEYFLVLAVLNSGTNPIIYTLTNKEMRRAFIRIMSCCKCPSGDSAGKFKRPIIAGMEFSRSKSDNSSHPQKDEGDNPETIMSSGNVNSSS
T3 sequence (Q99500 whole entry): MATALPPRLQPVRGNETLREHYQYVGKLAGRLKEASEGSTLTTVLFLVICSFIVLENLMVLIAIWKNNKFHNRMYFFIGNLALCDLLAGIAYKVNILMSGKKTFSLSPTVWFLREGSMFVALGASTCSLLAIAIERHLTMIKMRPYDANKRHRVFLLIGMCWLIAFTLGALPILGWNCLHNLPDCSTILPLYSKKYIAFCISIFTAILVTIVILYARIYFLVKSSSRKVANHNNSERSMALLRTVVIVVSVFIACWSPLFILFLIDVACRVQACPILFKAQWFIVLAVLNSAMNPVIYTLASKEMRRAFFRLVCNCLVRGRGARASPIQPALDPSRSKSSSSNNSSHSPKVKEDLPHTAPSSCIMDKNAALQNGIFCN

SMILES	Selectivity ratio [1]	EC50 [2]	Selectivity ratio [3]	Selectivity ratio [4]	EC50 [5]	EC50 [6]	further results
Cc1cc(CCC(=O)O)ccc1-c1nnc(-c2ccc(OC3CCC3)c(C#N)c2)s1	> 1000	0.79 nM	> 1000	170			
COc1ccc(-c2nnc(-c3ccc(CCC(=O)O)cc3C)s2)cc1C#N	> 1000	97 nM	> 1000	> 100			
Cc1cc(CCC(=O)O)ccc1-c1cnc(-c2ccc(OC(C)C)c(C#N)c2)s1	> 1000	14 nM	> 1000		200 nM	> 10000 nM	
Cc1cc(CCC(=O)O)ccc1-c1ccc(-c2ccc(OC(C)C)c(C#N)c2)o1	> 1000	> 10000 nM	> 1000		> 10000 nM	> 10000 nM	
Cc1cc(CCC(=O)O)ccc1-c1nnc(-c2ccc(OC(C)C)c(C#N)c2)n1C	> 1000	> 10000 nM	> 1000		> 10000 nM	> 10000 nM	
Cc1cc(CCC(=O)O)ccc1-c1noc(-c2cnc(OC(C)C)c(Cl)c2)n1	> 1000	0.73 nM	> 1000		950 nM	950 nM	
Cc1cc(CCC(=O)O)ccc1-c1nnc(-c2ccc(OC(C)C)c(C#N)c2)o1	> 1000	1.1 nM	> 1000		460 nM	> 10000 nM	
Cc1cc(CCC(=O)O)ccc1-c1nnc(-c2ccc(OCC(F)F)c(C#N)c2)s1	> 1000	1.1 nM	> 1000	230			
Cc1cc(CCC(=O)O)ccc1-c1cc(-c2ccc(OC(C)C)c(C#N)c2)cs1	> 1000	290 nM	> 1000		3200 nM	> 10000 nM	
CCCOc1ccc(-c2nnc(-c3ccc(CCC(=O)O)cc3C)s2)cc1C#N	> 1000	3.4 nM	> 1000	110			
Cc1cc(CCC(=O)O)ccc1-c1nnc(-c2ccc(OCC(=O)O)c(C#N)c2)s1	> 1000	360 nM	> 1000	28			
Cc1cc(CCC(=O)O)ccc1-c1nnc(-c2ccc(OC(CF)CF)c(C#N)c2)s1	> 1000	0.23 nM	> 1000	390			
Cc1cc(CCC(=O)O)ccc1-n1nnc(-c2ccc(OC(C)C)c(C#N)c2)n1	> 1000	0.98 nM	> 1000		150 nM	> 10000 nM	
Cc1cc(CCC(=O)O)ccc1-c1nnc(-c2ccc(OCCC(F)(F)F)c(C#N)c2)s1	> 1000	7.7 nM	> 1000	30			
Cc1cc(CCC(=O)O)ccc1-c1csc(-c2cnc(OC(C)C)c(Cl)c2)n1	> 1000		> 1000				inhibition [7]: 0%; inhibition [8]: 6%; inhibition [9]: 30%
CCC(C)Oc1ccc(-c2nnc(-c3ccc(CCC(=O)O)cc3C)s2)cc1C#N (stereo not drawn)	> 1000	0.28 nM	> 1000	120			
Cc1cc(CCC(=O)O)ccc1-c1ccc(-c2ccc(OC(C)C)c(C#N)c2)n1C	> 1000	> 10000 nM	> 1000		> 10000 nM	> 10000 nM	
Cc1cc(CCC(=O)O)ccc1-c1nnc(-c2ccc(F)c(C#N)c2)s1	> 1000	570 nM	> 1000	18			
Cc1cc(CCC(=O)O)ccc1-c1ncc(-c2ccc(OC(C)C)c(C#N)c2)o1	> 1000	5.1 nM	> 1000		> 10000 nM	> 10000 nM	
Cc1cc(CCC(=O)O)ccc1-c1nnc(-c2ccc(OCCF)c(C#N)c2)s1	> 1000	9.5 nM	> 1000	> 100			
Cc1cc(CCC(=O)O)ccc1-c1nnc(-c2ccc(OC(C(F)(F)F)C(F)(F)F)c(C#N)c2)s1	> 1000	38 nM	> 1000	2			
Cc1cc(CCC(=O)O)ccc1-c1nnc(-c2ccc(OC(C)C)c(C#N)c2)s1	> 1000	0.2 nM	> 1000	210			

SMILES	Selectivity ratio [1]	EC50 [2]	Selectivity ratio [3]	Selectivity ratio [4]	EC50 [5]	EC50 [6]	further results
Cc1cc(CCC(=O)O)ccc1-c1coc(-c2cnc(OC(C)C)c(Cl)c2)n1	> 1000	1000 nM	> 1000				inhibition [7]: 8%; inhibition [8]: 0%
Cc1cc(CCC(=O)O)ccc1-c1csc(-c2ccc(OC(C)C)c(C#N)c2)c1	> 1000	1200 nM	> 1000		3200 nM	> 10000 nM	
CCOc1ccc(-c2nnc(-c3ccc(CCC(=O)O)cc3C)s2)cc1C#N	> 1000	2.1 nM	> 1000	480			
Cc1cc(CCC(=O)O)ccc1-c1nnc(-c2ccc(OC(C)C)c(C#N)c2)[nH]1		380 nM			> 10000 nM	> 10000 nM	
Cc1cc(CCC(=O)O)ccc1-c1nnc(-c2ccc(OCC(F)(F)F)c(C#N)c2)s1	> 1000	0.6 nM	> 1000	400			
Cc1cc(CCC(=O)O)ccc1-c1nnc(-c2ccc(OCC3CC3)c(C#N)c2)s1	> 1000	0.61 nM	> 1000	230			
Cc1cc(CCC(=O)O)ccc1-c1noc(-c2ccc(OC(C)C)c(Cl)c2)n1	> 1000	0.15 nM	> 1000		73 nM	940 nM	
Cc1cc(CCC(=O)O)ccc1-c1nnc(-c2ccc(CC(C)C)c(C#N)c2)s1	> 1000	0.16 nM	> 1000	320			
Cc1cc(CCC(=O)O)ccc1-c1nc(-c2ccc(OC(C)C)c(C#N)c2)n[nH]1	> 1000		> 1000				
Cc1cc(CCC(=O)O)ccc1-c1nnc(-c2cnc(OC(C)C)c(Cl)c2)o1	> 1000	19 nM	> 1000				inhibition [7]: 82%; inhibition [8]: 44%
Cc1cc(CCC(=O)O)ccc1-c1nnc(-c2ccc(OCC(C)C)c(C#N)c2)s1	> 1000	2.8 nM	> 1000	200			
Cc1cc(CCC(=O)O)ccc1-c1nnc(-c2cccc(C#N)c2)s1	> 1000	> 1000 nM	> 1000				
Cc1cc(CCC(=O)O)ccc1-c1nnc(-c2cnc(OC(C)C)c(Cl)c2)s1	> 1000	2.1 nM	> 1000		1300 nM		inhibition [7]: 36%
Cc1cc(CCC(=O)O)ccc1-c1ncc(-c2ccc(OC(C)C)c(C#N)c2)s1	> 1000	0.18 nM	> 1000	> 600	120 nM	> 10000 nM	bioavailability [10]: 39%; Selectivity ratio [11]: > 10000; half-life [12]: < 1 h; Activity [13]: Active
Cc1cc(CCC(=O)O)ccc1-c1noc(-c2ccc(OC(C)C)c(C#N)c2)n1	> 1000	0.1 nM	> 1000		13 nM	110 nM	
CC(=O)Oc1ccc(-c2nnc(-c3ccc(CCC(=O)O)cc3C)s2)cc1C#N	> 1000	94 nM	> 1000	110			
Cc1cc(CCC(=O)O)ccc1-c1nc(C)c(-c2ccc(OC(C)C)c(C#N)c2)s1	> 1000	> 3600 nM	> 1000		> 10000 nM	> 10000 nM	
Cc1cc(CCC(=O)O)ccc1-c1ccc(-c2ccc(OC(C)C)c(C#N)c2)s1	> 1000	0.93 nM	> 1000		220 nM	> 10000 nM	
Cc1cc(CCC(=O)O)ccc1-c1nnc(-c2ccc(-c3cccs3)c(C#N)c2)s1	> 1000	1.9 nM	> 1000	110			
Cc1cc(CCC(=O)O)ccc1-c1nnc(-c2ccc(OCC#N)c(C#N)c2)s1	> 1000	45 nM	> 1000	220			
Cc1cc(CCC(=O)O)ccc1-c1nnn(-c2ccc(OC(C)C)c(C#N)c2)n1	> 1000	1.6 nM	> 1000		43 nM	> 10000 nM	
